We go through one molecule from patent US20190110478A1, “ANTIBACTERIAL COMPOSITION, ANTIBACTERIAL FILM, ANTIBACTERIAL FILM-ATTACHED SUBSTRATE, METHOD FOR MANUFACTURING ANTIBACTERIAL FILM, AND METHOD FOR MANUFACTURING ANTIBACTERIAL FILM-ATTACHED SUBSTRATE” (FUJIFILM Corporation, priority 2016, published 2019).

A short description of the data set: Viscosity characteristics of water-insoluble nitrogen-containing compound (rotary viscometer). The data set is classed as physicochemical. The note with it: 1% by mass solid content in propylene glycol monomethyl ether, 25° C. As to the method: In a case in which a water-insoluble nitrogen-containing compound is dissolved in propylene glycol monomethyl ether to obtain a solution having a solid content of 1% by mass, the viscosity of the solution at 25° C. as measured using a rotary viscometer is 10 mPa·s or higher.

For the molecule `CC(C)(C)c1ccc(O)c(-n2nc3ccccc3n2)c1` [TINUVIN PS], the Viscosity of solution came to 2.1 mPa·s.
